Laboratory results as given in patent publication US9181258B2, “Substituted 3,4-dihydropyrrolo[1,2-a]pyrazin-1(2H)-ones as protein kinase inhibitors” (NERVIANO MEDICAL SCIENCES S.R.L., priority 2011, dated 2015).
Counter-ions that a name gives are not always drawn.

Key:
MV-4-11 cells = assay: In vitro cell proliferation assay (CellTiter-Glo), MV-4-11; format: cell-based; settings: Homo sapiens, MV4-11, 72 hours
Method: (§1) In Vitro Cell Proliferation Assay
MV-4-11 (biphenotypic B myelomonocytic leukemia) cell line was obtained from ATCC.
Media for MV-4-11 cell line contained RPMI 1640 or EMEM plus 2 mM Glutamine and 10% Fetal bovine serum.
(§2) BaF3-PIM1 and MV-4-11 cells were seeded at 125 cells/well and 1250 cells/well respectively in a 384-well white plates in complete medium and treated with compounds dissolved in 0.1% DMSO, 24 h after seeding.
(§3) The cells were incubated at 37° C. and 5% CO2 and after 72 hours the plates were processed using CellTiter-Glo assay (Promega) following the manufacturer's instruction.
(§4) CellTiter-Glo was a homogenous method based on the quantification of the ATP present, an indicator of metabolitically active cells. ATP was quantified using a system based on luciferase and D-luciferin resulting into light generation. The luminescent signal was proportional to the number of cells present in culture.
(§5) Briefly 25 μl/well reagent solution were added to each wells and after 5 minutes shacking microplates were red by Envision (PerkinElmer) luminometer. The luminescent signal was proportional to the number of cells present in culture.
(§6) Inhibitory activity was evaluated comparing treated versus control data using Assay Explorer (MDL) program. IC50 was calculated using sigmoidal interpolation curve.

BaF3-PIM1 cells = assay: In vitro cell proliferation assay (CellTiter-Glo), BaF3-PIM1; format: cell-based; settings: 72 hours
Method: as §1, §2, §3, §4, §5, §6

human PIM1 = human PIM1 (Homo sapiens (Human), UniProt P11309); assay: Biochemical assay for inhibitors of PIM1 kinase activity (trans-phosphorylation, Dowex technique); settings: ATP 200 μM, Aktide 25 μM, enzyme 1 nM; read-out: PIM-1 IC50
Sequence of human PIM1 (P11309 whole entry): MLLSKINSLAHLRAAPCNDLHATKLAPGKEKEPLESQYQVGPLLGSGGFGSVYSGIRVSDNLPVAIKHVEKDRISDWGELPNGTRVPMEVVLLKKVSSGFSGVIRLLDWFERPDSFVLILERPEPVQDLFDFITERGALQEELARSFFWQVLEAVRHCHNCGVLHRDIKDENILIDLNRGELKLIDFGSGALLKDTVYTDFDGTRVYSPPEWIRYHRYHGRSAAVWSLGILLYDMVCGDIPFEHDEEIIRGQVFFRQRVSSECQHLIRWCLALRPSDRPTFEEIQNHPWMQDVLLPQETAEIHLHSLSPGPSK
Method: Biochemical Assay for Inhibitors of PIM1 Kinase Activity
The inhibitory activity of putative kinase inhibitors and the potency of selected compounds were determined using a trans-phosphorylation assay.
Specific peptide or protein substrates were trans-phosphorylated by their specific ser-thr or tyr kinase in the presence of ATP traced with ^33P-γ-ATP, and in the presence of their own optimal buffer and cofactors.
At the end of the phosphorylation reaction, more than 98% unlabeled ATP and radioactive ATP were captured by an excess of the ion exchange dowex resin; the resin then settled down to the bottom of the reaction plate by gravity. Supernatant was subsequently withdrawn and transferred into a counting plate, then evaluated by β-counting.
Reagents/Assay Conditions i. Dowex Resin Preparation
500 g of wet resin (SIGMA, custom prepared resin DOWEX 1×8 200-400 mesh, 2.5 Kg) were weighed out and diluted to 2 L in 150 mM sodium formate, pH 3.00.
The resin was allowed to settle down (some hours) and then the supernatant was discarded.
After three washes as above over a couple of days, the resin was allowed to settle and two volumes (wrt the resin volume) of 150 mM sodium formate buffer were added.
The pH was then measured and should have been around 3.00.
The washed resin was stable for more than one week; the stock resin was kept at 4° C. before use.
The buffer for PIM1 assay was composed of HEPES 50 mM, at pH 7.5, with 10 mM MgCl2, 1 mM DTT, 3 μM NaVO3, and 0.2 mg/mL BSA.
Full-length human PIM1 was expressed and purified as described in Bullock A N, et al., J. Biol. Chem. 2005, 280, 41675-82.
1.7 μM PIM1 was incubated 1 h at 28° C. in the presence of 125 μM ATP.
ATP concentration: 200 μM; ^33P-γ-ATP: 6 nM; Enzyme concentration: 1 nM Substrate concentration Aktide (Chemical Abstract Service Registry Number 324029-01-8): 25 μM iv. Robotized Dowex Assay
The test mix consisted of:
1) 3× Enzyme mix (done in Kinase Buffer 3×), 5 μL/well
2) 3× substrate and ATP mix (done in ddH2O), together with ^33P-γ-ATP, 5 μL/well 3) 3× test compounds (diluted into ddH2O—3% DMSO)—5 μL/well See below for compound dilution and assay scheme […]
An automated station (Biomek FX, Beckman) was used for serial dilutions, producing 1:3 dilutions in 100% DMSO, from line A1 to A10, for all the compounds in the column.
Data were analyzed by an internally customized version of the “Assay Explorer” SW package, which provided sigmoidal fitting of the ten-dilution curves for IC50 determination in secondary assay/hit confirmation routines.

human PIM2 = human PIM2 (Homo sapiens (Human), UniProt Q9P1W9); assay: PIM2 kinase inhibition assay: Dowex technique; format: biochemical; settings: ATP 4 μM, Aktide 5 μM, enzyme 1.5 nM; read-out: PIM-2 IC50
Sequence of human PIM2 (Q9P1W9 whole entry): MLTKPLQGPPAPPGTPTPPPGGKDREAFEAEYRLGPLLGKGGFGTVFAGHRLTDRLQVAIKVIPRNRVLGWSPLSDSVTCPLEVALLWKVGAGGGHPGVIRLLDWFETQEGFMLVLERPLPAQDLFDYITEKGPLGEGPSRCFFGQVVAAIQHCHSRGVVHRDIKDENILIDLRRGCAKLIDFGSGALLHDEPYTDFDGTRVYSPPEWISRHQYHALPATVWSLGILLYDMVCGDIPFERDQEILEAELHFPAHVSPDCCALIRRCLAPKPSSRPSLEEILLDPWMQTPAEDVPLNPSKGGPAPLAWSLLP
Method: Method for PIM2 Kinase Inhibition Assay: Dowex Technique
The buffer for PIM2 assay was composed of HEPES 50 mM, at pH 7.5, with 1 mM MgCl2, 1 mM DTT, 3 μM Na3VO4, and 0.2 mg/mL BSA.
Full-length human PIM2 was expressed and purified as described in Fedorov O, et al., PNAS 2007 104, 51, 20523-28. ii. Assay Conditions (Final Concentrations)
Enzyme concentration=1.5 nM; ATP=4 μM; ^33P-γ-ATP=1 nM
Aktide substrate (Chemical Abstract Service Registry Number 324029-01-8)=5 μM iii. Robotized Dowex Assay
See above: same procedure as described for PIM1.

| Compound | IC50 (MV-4-11 cells) [nM] | IC50 (BaF3-PIM1 cells) [nM] | IC50 (human PIM1) [nM] | IC50 (human PIM2) [nM] |
| --- | --- | --- | --- | --- |
| CN(C)Cc1ccc(-c2c(-c3cccc(OC(F)(F)F)c3)cc3n2C(CCO)CNC3=O)cc1 (stereo not shown) [Compound 83, 6-{4-[(dimethylamino)methyl]phenyl}-4-(2-hydroxyethyl)-7-[3-(trifluoromethoxy)phenyl]-3,4-dihydropyrrolo[1,2-a]pyrazin-1(2H)-one trifluoroacetate] | 2890 | 329 | 4 | 38 |
| NCC[C@H]1CNC(=O)c2cc(-c3cccc(OC(F)(F)F)c3)c(-c3ccsc3)n21 [Compound 85, (4S)-4-(2-aminoethyl)-6-(thiophen-3-yl)-7-[3-(trifluoromethoxy)phenyl]-3,4-dihydropyrrolo[1,2-a]pyrazin-1(2H)-one hydrochloride] | 3660 | 85 | 12 | 69 |
| NCC[C@H]1CNC(=O)c2cc(-c3cccc(OC(F)(F)F)c3)c(-c3ccccc3)n21 [Compound 87, (4S)-4-(2-aminoethyl)-6-phenyl-7-[3-(trifluoromethoxy)phenyl]-3,4-dihydropyrrolo[1,2-a]pyrazin-1(2H)-one] | 3610 | 202 | 9 | 38 |
| Cc1cccc(-c2c(-c3cccc(OC(F)(F)F)c3)cc3n2[C@@H](CCN)CNC3=O)c1 [Compound 92, (4S)-4-(2-aminoethyl)-6-(3-methylphenyl)-7-[3-(trifluoromethoxy)phenyl]-3,4-dihydropyrrolo[1,2-a]pyrazin-1(2H)-one hydrochloride] | 2200 | 147 | 5 | 15 |
| NCC[C@H]1CNC(=O)c2cc(-c3cccc(OC(F)(F)F)c3)c(-c3ccc(F)cc3)n21 [Compound 94, (4S)-4-(2-aminoethyl)-6-(4-fluorophenyl)-7-[3-(trifluoromethoxy)phenyl]-3,4-dihydropyrrolo[1,2-a]pyrazin-1(2H)-one hydrochloride] | 5420 | 428 | 20 | 27 |
| CC(=O)c1ccc(-c2c(-c3cccc(OC(F)(F)F)c3)cc3n2[C@@H](CCN)CNC3=O)cc1 [Compound 95, (4S)-6-(4-acetylphenyl)-4-(2-aminoethyl)-7-[3-(trifluoromethoxy)phenyl]-3,4-dihydropyrrolo[1,2-a]pyrazin-1(2H)-one hydrochloride] | 1260 | 573 | 6 | 17 |
| NCC[C@H]1CNC(=O)c2cc(-c3cccc(OC(F)(F)F)c3)c(-c3ccc(C=O)cc3)n21 [Compound 97, 4-{(4S)-4-(2-aminoethyl)-1-oxo-7-[3-(trifluoromethoxy)phenyl]-1,2,3,4-tetrahydropyrrolo[1,2-a]pyrazin-6-yl}benzaldehyde hydrochloride] | 2100 | 1500 | 7 | 22 |
| NCC[C@H]1CNC(=O)c2cc(-c3cccc(OC(F)(F)F)c3)c(-c3ccc(CN4CCOCC4)cc3)n21 [Compound 99, (4S)-4-(2-aminoethyl)-6-[4-(morpholin-4-ylmethyl)phenyl]-7-[3-(trifluoromethoxy)phenyl]-3,4-dihydropyrrolo[1,2-a]pyrazin-1(2H)-one hydrochloride] | 672 | 410 | 2 | 7 |
| CN1CCN(Cc2ccc(-c3c(-c4cccc(OC(F)(F)F)c4)cc4n3[C@@H](CCN)CNC4=O)cc2)CC1 [Compound 100, (4S)-4-(2-aminoethyl)-6-{4-[(4-methylpiperazin-1-yl)methyl]phenyl}-7-[3-(trifluoromethoxy)phenyl]-3,4-dihydropyrrolo[1,2-a]pyrazin-1(2H)-one hydrochloride] | 616 | 3100 | 1 | 2 |
| CN(C)Cc1ccc(-c2c(-c3cccc(OC(F)(F)F)c3)cc3n2[C@@H](CCN)CNC3=O)cc1 [Compound 101, (4S)-4-(2-aminoethyl)-6-{4-[(dimethylamino)methyl]phenyl}-7-[3-(trifluoromethoxy)phenyl]-3,4-dihydropyrrolo[1,2-a]pyrazin-1(2H)-one hydrochloride] | 939 | 296 | 1 | 9 |

Next, values leading:

| IC50 (MV-4-11 cells) [nM] | IC50 (BaF3-PIM1 cells) [nM] | IC50 (human PIM1) [nM] | IC50 (human PIM2) [nM] | Compound |
| --- | --- | --- | --- | --- |
| 1640 | 836 | 19 | 156 | NCCC[C@H]1CNC(=O)c2cc(-c3cccc(OC(F)(F)F)c3)c(-c3ccccc3)n21 [Compound 102, (4S)-4-(3-aminopropyl)-6-phenyl-7-[3-(trifluoromethoxy)phenyl]-3,4-dihydropyrrolo[1,2-a]pyrazin-1(2H)-one hydrochloride] |
| 2930 | 1180 | 11 | 153 | NCCC[C@H]1CNC(=O)c2cc(-c3cccc(OC(F)(F)F)c3)c(-c3ccsc3)n21 [Compound 103, (4S)-4-(3-aminopropyl)-6-(thiophen-3-yl)-7-[3-(trifluoromethoxy)phenyl]-3,4-dihydropyrrolo[1,2-a]pyrazin-1(2H)-one hydrochloride] |
| 3200 | 3900 | 22 | 129 | CC(=O)c1ccc(-c2c(-c3cccc(OC(F)(F)F)c3)cc3n2[C@@H](CCCN)CNC3=O)cc1 [Compound 110, (4S)-6-(4-acetylphenyl)-4-(3-aminopropyl)-7-[3-(trifluoromethoxy)phenyl]-3,4-dihydropyrrolo[1,2-a]pyrazin-1(2H)-one hydrochloride] |
| 1770 | 71 | 6 | 16 | NCC[C@H]1CNC(=O)c2cc(-c3cccc(OC(F)(F)F)c3)c(-c3ccc4c(c3)OCO4)n21 [Compound 112, (4S)-4-(2-aminoethyl)-6-(1,3-benzodioxol-5-yl)-7-[3-(trifluoromethoxy)phenyl]-3,4-dihydropyrrolo[1,2-a]pyrazin-1(2H)-one hydrochloride] |
| 812 | 76 | 3 | 46 | CN(C)c1ccc(-c2c(-c3cccc(OC(F)(F)F)c3)cc3n2[C@@H](CCN)CNC3=O)cc1 [Compound 115, (4S)-4-(2-aminoethyl)-6-[4-(dimethylamino)phenyl]-7-[3-(trifluoromethoxy)phenyl]-3,4-dihydropyrrolo[1,2-a]pyrazin-1(2H)-one hydrochloride] |
| 861 | 142 | 3 | 22 | COc1ccc(-c2c(-c3cccc(OC(F)(F)F)c3)cc3n2[C@@H](CCN)CNC3=O)cc1 [Compound 116, (4S)-4-(2-aminoethyl)-6-(4-methoxyphenyl)-7-[3-(trifluoromethoxy)phenyl]-3,4-dihydropyrrolo[1,2-a]pyrazin-1(2H)-one hydrochloride] |
